According to ChEMBL document CHEMBL4706551, “Rational design of new multitarget histamine H receptor ligands as potential candidates for treatment of Alzheimer's disease” (Eur J Med Chem, 2020):
Activity calls are given as the source filed them.

Columns and labels:
Mus musculus [1] = assay: Analgesic activity in formalin-induced nociception CD-1 mouse model assessed as reduction in pain behaviour by measuring less licking of formalin injected hind paw compound administered intraperitoneally prior to formalin induction and measured during late phase (15 to 30 mins after formalin injection) by formalin test; type: functional; conditions: CD-1, ip, time 15-30 min
Rattus norvegicus [2] = assay: Antiinflammatory activity against Wistar (Krf:WI) rat assessed as reduction in carragenan-induced paw edema at 22.5 mg/kg treated prior to carrageenan challenge and measured after 1 hr by plethysmometry relative to control; type: functional
Rattus norvegicus [3] = assay: Antiinflammatory activity against Wistar (Krf:WI) rat assessed as reduction in carragenan-induced paw edema at 22.5 mg/kg treated prior to carrageenan challenge and measured after 3 hrs by plethysmometry relative to control; type: functional
Rattus norvegicus [4] = assay: Antiinflammatory activity against Wistar (Krf:WI) rat assessed as reduction in carragenan-induced paw edema at 30 mg/kg treated prior to carrageenan challenge and measured after 3 hrs by plethysmometry relative to control; type: functional
Rattus norvegicus [5] = assay: Antiinflammatory activity against Wistar (Krf:WI) rat assessed as reduction in carragenan-induced paw edema at 30 mg/kg treated prior to carrageenan challenge and measured after 6 hrs by plethysmometry relative to control; type: functional
Rattus norvegicus [6] = assay: Analgesic activity in Wistar (Krf:WI) rat assessed as inhibition of carrageenan-induced mechanical inflammatory hyperalgesia by measuring paw withdrawl threshold at 30 mg/kg treated prior to carrageenan challenge and measured after 3 to 24 hrs (reference value: 88.4 to 90.9 %); type: functional; design: scale not given: the % may be the effect or the level left; conditions: time 3-24 hrs
Rattus norvegicus [7] = assay: Analgesic activity in carragenan-induced thermal hyperalgesia model of Wistar (Krf:WI) rat assessed as latency of nociceptive response for radiant heat stimulation at 30 mg/kg treated prior to carrageenan challenge and measured after 1 hr (reference value: 71.4%); type: functional
Rattus norvegicus [8] = assay: Analgesic activity in carragenan-induced thermal hyperalgesia model of Wistar (Krf:WI) rat assessed as latency of nociceptive response for radiant heat stimulation at 30 mg/kg treated prior to carrageenan challenge and measured after 2 hrs (reference value: 63.6%); type: functional
Rattus norvegicus [9] = assay: Analgesic activity in carragenan-induced thermal hyperalgesia model of Wistar (Krf:WI) rat assessed as latency of nociceptive response for radiant heat stimulation at 30 mg/kg treated prior to carrageenan challenge and measured after 24 hrs (reference value: 83.3%); type: functional
Mus musculus [10] = assay: Antiallodynic activity in oxaliplatin-induced peripheral neuropathy pain CD-1 mouse model assessed as inhibition of early-phase tactile allodynia by measuring pain sensitivity threshold at 22.5 mg/kg administered with compound intraperitoneally at 3 hrs after oxaliplatin stimulation and measured after 30 mins by von Frey test (reference value: 61.2 %); type: functional; design: scale not given: the % may be the effect or the level left; conditions: 0.5 h
Rattus norvegicus [11] = assay: Memory enhancement effect in dizocilpine-induced Wistar (Krf:WI) rat model of amnesia assessed as increase in step through latency administered with compound intraperitoneally and measured after 30 to 45 mins by step-through passive avoidance test; type: functional, organism-based; conditions: dose 1.25-5 mg/kg, time 30-45 min
Rattus norvegicus [12] = assay: Memory enhancement effect in dizocilpine-induced Wistar (Krf:WI) rat model of amnesia assessed as decrease in transfer latency time at 1.25 to 5 mg/kg, ip measured after 30 to 45 mins by elevated plus maze test; type: functional, organism-based; conditions: dose 1.25-5 mg/kg, time 30-45 min
[13] = target: Cholinesterase (Equus caballus) (UniProt P81908); assay: Non-competitive inhibition of equine serum BChE using BTCI as substrate incubated for 5 mins followed by substrate addition and measured after 5 mins by spectrophotometric based Lineweaver-Burk plot analysis; type: cell-free; conditions: time 10.0 min
Cholinesterase (Equus caballus), sequence (P81908 whole entry): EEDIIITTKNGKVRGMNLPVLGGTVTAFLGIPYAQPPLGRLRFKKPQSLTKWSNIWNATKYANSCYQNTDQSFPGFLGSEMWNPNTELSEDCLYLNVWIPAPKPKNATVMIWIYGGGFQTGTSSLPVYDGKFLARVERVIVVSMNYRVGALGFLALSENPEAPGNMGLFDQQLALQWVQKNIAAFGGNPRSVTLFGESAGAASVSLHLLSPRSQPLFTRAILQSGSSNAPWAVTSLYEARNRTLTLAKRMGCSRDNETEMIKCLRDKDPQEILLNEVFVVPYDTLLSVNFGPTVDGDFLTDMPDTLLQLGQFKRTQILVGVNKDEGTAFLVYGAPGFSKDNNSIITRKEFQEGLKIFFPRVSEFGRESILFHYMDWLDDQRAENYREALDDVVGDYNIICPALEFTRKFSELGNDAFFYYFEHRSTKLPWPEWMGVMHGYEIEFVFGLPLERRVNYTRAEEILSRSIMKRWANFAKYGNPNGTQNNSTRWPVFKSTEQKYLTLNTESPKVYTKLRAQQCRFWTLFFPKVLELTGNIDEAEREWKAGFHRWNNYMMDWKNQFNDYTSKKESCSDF

[14] = target: Cholinesterase (Equus caballus) (UniProt P81908); assay: Non-competitive inhibition of equine serum BChE using BTCI as substrate incubated for 5 mins followed by substrate addition and measured after 5 mins by spectrophotometric based Cornish-Bowden plot analysis; type: cell-free; conditions: time 10.0 min
Cholinesterase = Cholinesterase (Homo sapiens, UniProt P06276)
Cholinesterase, sequence (P06276 whole entry): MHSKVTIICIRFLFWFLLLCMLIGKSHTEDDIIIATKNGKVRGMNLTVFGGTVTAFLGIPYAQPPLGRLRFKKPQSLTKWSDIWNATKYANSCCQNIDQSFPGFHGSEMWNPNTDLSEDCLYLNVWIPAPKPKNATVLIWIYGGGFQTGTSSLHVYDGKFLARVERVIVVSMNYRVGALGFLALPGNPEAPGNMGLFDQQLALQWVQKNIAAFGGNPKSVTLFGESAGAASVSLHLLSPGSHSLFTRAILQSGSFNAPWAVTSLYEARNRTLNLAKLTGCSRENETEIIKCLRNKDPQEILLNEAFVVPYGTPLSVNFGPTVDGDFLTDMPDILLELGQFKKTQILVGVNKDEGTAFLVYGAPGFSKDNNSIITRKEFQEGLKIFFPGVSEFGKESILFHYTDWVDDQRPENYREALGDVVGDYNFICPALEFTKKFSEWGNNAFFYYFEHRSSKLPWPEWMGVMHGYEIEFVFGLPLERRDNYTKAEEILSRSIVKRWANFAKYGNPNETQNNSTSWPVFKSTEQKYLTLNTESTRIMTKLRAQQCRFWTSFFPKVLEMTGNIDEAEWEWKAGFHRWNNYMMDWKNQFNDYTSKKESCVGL
Description: Inhibition of human BuChE by spectrophotometric based Ellman's method

MAO-A = target: T1, MAO-A (Homo sapiens, UniProt P21397); assay: in vitro; conditions: probe p-tyramine
T1 sequence (P21397 whole entry): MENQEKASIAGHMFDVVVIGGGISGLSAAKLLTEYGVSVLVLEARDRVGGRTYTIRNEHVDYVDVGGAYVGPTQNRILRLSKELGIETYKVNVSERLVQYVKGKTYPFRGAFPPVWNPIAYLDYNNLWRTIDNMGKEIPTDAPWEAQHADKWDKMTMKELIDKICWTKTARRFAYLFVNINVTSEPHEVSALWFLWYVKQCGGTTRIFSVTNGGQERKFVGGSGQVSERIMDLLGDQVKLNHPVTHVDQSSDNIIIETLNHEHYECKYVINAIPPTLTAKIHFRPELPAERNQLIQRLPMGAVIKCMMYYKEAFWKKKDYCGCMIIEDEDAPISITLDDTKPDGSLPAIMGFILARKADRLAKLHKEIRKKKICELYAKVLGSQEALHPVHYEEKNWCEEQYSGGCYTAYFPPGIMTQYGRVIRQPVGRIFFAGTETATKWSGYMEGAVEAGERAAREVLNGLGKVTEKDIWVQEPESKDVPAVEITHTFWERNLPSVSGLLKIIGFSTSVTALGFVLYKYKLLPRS
Description: Inhibition of recombinant human MAO-A expressed in baculovirus infected BTI cells at 1 uM using p-tyramine as substrate by fluorometric assay relative to control

in vitro = conditions: PAMPA, pH 7.4
Description: Permeability of compound in PBS buffer assessed as permeability coefficient at pH 7.4 at 200 uM incubated for 5 hrs by PAMPA based LC-MS analysis

Histamine H3 receptor = Histamine H3 receptor (Homo sapiens, UniProt Q9Y5N1); assay: biochemical
Histamine H3 receptor, sequence (Q9Y5N1 whole entry): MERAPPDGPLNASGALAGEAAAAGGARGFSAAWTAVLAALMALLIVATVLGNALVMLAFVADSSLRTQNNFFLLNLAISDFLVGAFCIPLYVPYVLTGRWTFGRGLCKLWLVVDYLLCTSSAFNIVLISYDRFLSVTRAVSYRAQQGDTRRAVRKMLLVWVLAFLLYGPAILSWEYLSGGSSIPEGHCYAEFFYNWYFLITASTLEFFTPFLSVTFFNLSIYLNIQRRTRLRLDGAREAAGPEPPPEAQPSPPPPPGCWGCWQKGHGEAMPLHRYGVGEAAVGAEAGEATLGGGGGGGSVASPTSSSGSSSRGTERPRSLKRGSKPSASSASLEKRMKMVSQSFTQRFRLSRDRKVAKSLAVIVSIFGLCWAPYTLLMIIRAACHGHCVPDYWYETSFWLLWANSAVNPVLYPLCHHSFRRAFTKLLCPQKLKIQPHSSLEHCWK
Description: Displacement of [3H]N-alpha-methylhistamine from recombinant human histamine H3 receptor expressed in CHO-K1 cells by microbeta scintillation analysis

SMILES: O=c1c2ccccc2oc2ccc(OCCCCCN3CCCCCC3)cc12
- ED50 (Mus musculus [1]): 11.3 mg/kg
- inhibition in vivo at 22.5 mg/kg (Rattus norvegicus [2]): 36.1%
- inhibition in vivo at 22.5 mg/kg (Rattus norvegicus [3]): 26.5%
- inhibition in vivo at 30 mg/kg (Rattus norvegicus [4]): 52.1%
- inhibition in vivo at 30 mg/kg (Rattus norvegicus [5]): 44.9%
- Activity (Rattus norvegicus [6]): 118%
- Activity (Rattus norvegicus [7]): 130%
- Activity (Rattus norvegicus [8]): 102.8%
- Activity (Rattus norvegicus [9]): 116%
- Activity (Mus musculus [10]): 90.6%
- Activity (Rattus norvegicus [11]): Dose-dependent effect
- Activity (Rattus norvegicus [12]): Active
- inhibition [13]: Active
- inhibition [14]: Active
- IC50 (Cholinesterase): 1280 nM
- inhibition at 1 µM (MAO-A): 4%
- Papp at 5 h, 200 µM (in vitro): 5.6 ×10⁻⁶ cm/s
- Ki (Histamine H3 receptor): 170 nM
